Patent publication US7368444B2, “N-carbamoyl nitrogen-containing fused ring compounds and drugs containing these compounds as the active ingredient” (Ono Pharmaceutical Co., Ltd., priority 2002, dated 2008)

How the values were obtained:
[1] = molecular target: T1, MBR (Rattus norvegicus, UniProt P16257); assay: Receptor binding: [3H]PK11195 competition binding, rat brain membrane preparation; conditions: 1 nmol/L [3H]PK11195, rat brain membrane preparation; Ki from IC50 by Cheng & Prusoff
T1 construct: After male wistar rats were decapitated followed to remove the whole brain, cerebellums were removed; from tissue; host or cells: male Wistar rat whole brain without cerebellum, crude membrane pellet (12,000 g)
Method: The affinity of the compound to MBR was determined using rat brain membrane preparation. After male wistar rats were decapitated followed to remove the whole brain, cerebellums were removed. They were homogenized in ice-cold 50 mmo/L Tris-HCl buffer (pH7.4) and the homogenates were centrifuged at 12,000 g for 20 min (4° C.), and then their supernatants were discarded. The residual pellets were washed in the same buffer. The pellets resuspended in 50 mmo/L Tris-HCl buffer (pH7.4) and adjusted to about 1 mg/mL were used as rat brain membrane preparations for binding assay. The binding assay was experimented using [3H]PK11195 as a selective MBR ligand.
To determine the amount of total binding in saturation binding study, membrane preparations, various concentrations of [^3H]PK11195, final concentraion: 0.5 vol % dimethylsulfoxide (DMSO) and 50 mmo/L Tris-HCl buffer (pH7.4) (total volume of 200 μL) were incubated for 1 hour at room temperature. To determine the amount of non-specific binding, 20 μmol/L of PK11195 was added in place of DMSO were incubated for 1 hour. The mixture rapidly was filtrated on GF/B filter soaked with 0.3% polyethyleneimine using cell harvester, which was washed twice with 50 mmo/L Tris-HCl buffer (pH7.4). After drying, the radioactivity on the filer was measured by liquid scintillation counter. The data were analyzed using analysis soft KELL (Ver. 6, BIOSOFT). The dissociation constant (KD value) was determined by using scatchard analyses.
To determine the amount of total binding in competition binding study, membrane preparation, final concentraion: 1 nmol/L of [^3H]PK11195, final concentraion: 0.5 vol % of DMSO and 50 mmol/L Tris-HCl buffer (pH7.4) (the total volume of 200 μL) were incubated for 1 hour at room temperature. […] The reaction was terminated as above described 1 hour later, then radioactivity on the filer was measured by liquid scintillation counter. […]

[2] = system: rat adrenocortical mitochondria; assay: Determination of pregnenolone in rat adrenocortical mitochondria; type: biochemical; conditions: final concentration of the compound 1 μmol/L; compared with DMSO treated group
Method: The steroid productivity of the present compound was evaluated using rat adrenocortical mitochondria.
After intraperitoneal administration of 20 mg/mL (1 mL) cycloheximide, 10 IU/mL (0.3 mL) adrenocorticotropic hormone (ACTH) was intraperitoneally administered to Male SD rats 5 minutes later. Then, rats were sacrificed by cervical dislocation 20 minutes later and bilateral adrenal cortexes were extirpated at once. The extirpated adrenal cortexes were homogenized in buffer A (50 mmol/L Tris-HCl, 250 mmol/L Succrose) followed to be centrifuged at 2,000 g for 3 min (4° C.). The supernatant was centrifuged at 12,500 g for 10 min (4° C.). The residual pellet was resuspended in buffer A followed to be centrifuged at 12,500 g for 10 min (4° C.). The pellet was washed again and finally suspended in buffer B (250 mmol/L Succrose, 10 mmol/L potassium phosphate buffer, 15 mmol/L triethanolamine, 20 mmol/L potassium chloride, 5 mmol/L magnesium chloride, 10 μmol/L trilostane, 10 μmol/L SU10603) for experiments. Malate (150 mmol/L), β-NADP^+ (5 mmol/L) and the compound in a total volume of 25 μL were incubated for 5 min at 37° C. […] The radioactivity of the supernatant was measured by liquid scintillation counter. The pregnenolone content in the sample was calculated from standard curve.

Row | SMILES | Ki [1] | pregnenolone content [2]
1 | O=C(Nc1ccccc1)N1CCCCc2ccc(F)cc21 [7 (5), 8-fluoro-1-phenylcarbamoyl-2,3,4,5-tetrahydro-1H-1-benzazepine] | 5.5 nM | –
2 | O=C(Nc1c(Cl)cccc1Cl)N1CCCCc2ccccc21 [7 (18), 1-(2,6-dichlorophenylcarbamoyl)-2,3,4,5-tetrahydro-1H-1-benzazepine] | 0.09 nM | –
3 | O=C(Nc1ccc(O)cc1)N1CCCCc2ccccc21 [Example 14, 1-(4-hydroxyphenylcarbamoyl)-2,3,4,5-tetrahydro-1H-1-benzazepine] | 32 nM | –
4 | CCCCCCN(CCCCCC)C(=O)Cc1c(-c2ccc(F)cc2)[nH]c2ccccc12 [FGIN1-27, 2-[2-(4-fluorophenyl)-1H-indol-3-yl]-N,N-dihexylacetamide] | – | higher than that in DMSO treated group
